According to patent publication US10226453B2, “3-(1H-indol-2-yl)-1H-pyrazolo[4,3-B]pyridines and therapeutic uses thereof” (Samumed, LLC, priority 2015, dated 2019):

What was measured:
[1] = system: primary human fibroblasts derived from IPF patients (LL29 cells) treated with TGF-β1; assay: Inhibition of the fibrotic process: αSMA staining in TGF-β1 treated primary human fibroblasts from IPF patients (LL29 cells); type: cell-based; conditions: Fibroblast, 96 h, TGF-β1 20 ng/mL, 4 days; for EC50: % αSMA positive cells; for inhibition at 10 µM: given where EC50 >10 μM, read-out: percent inhibition at 10 μM
Outline: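 LL29 IPF-patient lung fibroblasts in 1% FBS F12 were given compounds (11-point, 10 μM to […], 0.1% DMSO) plus TGF-β1 20 ng/mL for 4 days at 37 °C. αSMA-positive fraction of live (SYTOX-negative) cells was imaged and normalized to TGF-β1/DMSO wells. EC50 by non-linear regression, or % inhibition at 10 μM if >10 μM.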

[2] = system: IL-6 (THP-1 cells); assay: IL-6 inhibition in LPS-stimulated THP-1 human monocyte cells (HTRF); type: cell-based; conditions: LPS 500 ng/mL; for EC50: 22 hours, IL6 HTRF; for inhibition at 10 µM: given where EC50 >10 μM, read-out: percent inhibition at 10 μM
Outline: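 THP-1 cells, serum-reduced (1% FBS) for 24 h, were preincubated with compound (10-point 1:3 series from 10 μM, 0.1% DMSO) for 2 h, then stimulated with 500 ng/mL LPS for 22 h at 37° C. IL-6 was read by HTRF (665/620 nm ratio) and normalized to DMSO. EC50 from four-parameter fit; % inhibition at 10 μM given if EC50 >10 μM.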

Structure (SMILES)	EC50 [2]	EC50 [1]	inhibition at 10 µM [1]	inhibition at 10 µM [2]
CN(C)CCNc1cc(F)cc(-c2cccc3[nH]c(-c4n[nH]c5ccc(-c6ccccn6)nc45)cc23)c1 [Compound 476, N^1-(3-Fluoro-5-(2-(5-(pyridin-2-yl)-1H-pyrazolo[4,3-b]pyridin-3-yl)-1H-indol-4-yl)phenyl)-N^2,N^2-dimethylethane-1,2-diamine]	0.278 µM	2.12 µM	–	–
Nc1cncc(-c2ccc3[nH]nc(-c4cc5ncccc5[nH]4)c3n2)c1 [Compound 507, 5-(3-(1H-Pyrrolo[3,2-b]pyridin-2-yl)-1H-pyrazolo[4,3-b]pyridin-5-yl) pyridin-3-amine]	0.008 µM	> 10 µM	24.5%	–
Fc1cccc(-c2cccc3[nH]c(-c4n[nH]c5ccc(-c6cncc(OCc7ccccc7)c6)nc45)cc23)c1 [Compound 546, 5-(5-(Benzyloxy)pyridin-3-yl)-3-(4-(3-fluorophenyl)-1H-indol-2-yl)-1H-pyrazolo[4,3-b]pyridine]	2.91 µM	1.45 µM	–	–
O=C(CC1CCNCC1)Nc1cncc(-c2ccc3[nH]nc(-c4cc5c(-c6ccccn6)cccc5[nH]4)c3n2)c1 [Compound 621, 2-(Piperidin-4-yl)-N-(5-(3-(4-(pyridin-2-yl)-1H-indol-2-yl)-1H-pyrazolo[4,3-b]pyridin-5-yl)pyridin-3-yl)acetamide]	0.052 µM	2.12 µM	–	–
c1cc(N2CCCCC2)c2cc(-c3n[nH]c4ccc(-c5cncc(OC6CCNCC6)c5)nc34)[nH]c2c1 [Compound 636, 3-(4-(Piperidin-1-yl)-1H-indol-2-yl)-5-(5-(piperidin-4-yloxy)pyridin-3-yl)-1H-pyrazolo[4,3-b]pyridine]	1.98 µM	3.9 µM	–	–
Oc1cncc(-c2ccc3[nH]nc(-c4cc5ncccc5[nH]4)c3n2)c1 [Compound 1031, 5-(3-(1H-Pyrrolo[3,2-b]pyridin-2-yl)-1H-pyrazolo[4,3-b]pyridin-5-yl) pyridin-3-ol]	0.091 µM	> 10 µM	18.4%	–

More lines, main results first:

EC50 [2]	Structure (SMILES)	EC50 [1]	inhibition at 10 µM [1]	inhibition at 10 µM [2]
0.101 µM	Cc1ccncc1-c1ccc2[nH]nc(-c3cc4c(-c5cc(F)cc(CNS(C)(=O)=O)c5)cccc4[nH]3)c2n1 [Compound 481, N-(3-Fluoro-5-(2-(5-(4-methylpyridin-3-yl)-1H-pyrazolo[4,3-b]pyridin-3-yl)-1H-indol-4-yl)benzyl)methanesulfonamide]	0.078 µM	–	–
0.027 µM	c1cc(-c2ccncc2)c2cc(-c3n[nH]c4ccc(-c5cncc(OCCN6CCCC6)c5)nc34)[nH]c2c1 [Compound 606, 3-(4-(Pyridin-4-yl)-1H-indol-2-yl)-5-(5-(2-(pyrrolidin-1-yl)ethoxy)pyridin-3-yl)-1H-pyrazolo[4,3-b]pyridine]	1.28 µM	–	–
0.072 µM	c1cc(-c2ccoc2)c2cc(-c3n[nH]c4ccc(-c5cn[nH]c5)nc34)[nH]c2c1 [Compound 711, 3-(4-(Furan-3-yl)-1H-indol-2-yl)-5-(1H-pyrazol-4-yl)-1H-pyrazolo[4,3-b] pyridine]	8.81 µM	–	–
> 10 µM	c1cc(-c2ccoc2)c2cc(-c3n[nH]c4ccc(-c5cncc(OC6CCCCC6)c5)nc34)[nH]c2c1 [Compound 715, 5-(5-(Cyclohexyloxy)pyridin-3-yl)-3-(4-(furan-3-yl)-1H-indol-2-yl)-1H-pyrazolo[4,3-b]pyridine]	3.94 µM	–	36.2%
0.347 µM	Oc1cncc(-c2ccc3[nH]nc(-c4cc5c(-c6cccs6)cccc5[nH]4)c3n2)c1 [Compound 737, 5-(3-(4-(Thiophen-2-yl)-1H-indol-2-yl)-1H-pyrazolo[4,3-b]pyridin-5-yl) pyridin-3-ol]	2.03 µM	–	–
> 10 µM	c1cnc2cc(-c3n[nH]c4ccc(-c5cn[nH]c5)nc34)[nH]c2c1 [Compound 1021, 5-(1H-Pyrazol-4-yl)-3-(1H-pyrrolo[3,2-b]pyridin-2-yl)-1H-pyrazolo[4,3-b] pyridine]	1.37 µM	–	0%
